Values quoted from earlier work, collected in patent US20220211725A1, “Pharmaceutical Composition Comprising Venetoclax” (Alembic Pharmaceuticals Limited, priority 2019, published 2022).

Conditions: background description

aqueous solubility: very low
SMILES: CC1(C)CCC(CN2CCN(c3ccc(C(=O)NS(=O)(=O)c4ccc(NCC5CCOCC5)c([N+](=O)[O-])c4)c(Oc4cnc5[nH]ccc5c4)c3)CC2)=C(c2ccc(Cl)cc2)C1 [Venetoclax]
